Results as given in patent US6521654B2, “Substituted imidazolidine derivatives, their preparation, their use and pharmaceutical preparations including them” (Aventis Pharma Deutschland GmbH, priority 1997, dated 2003).

Each compound was assayed against T1, interaction between VCAM-1 and VLA-4 (Homo sapiens, UniProt P05556+P13612) (assay: U937/VCAM-1 cell adhesion test (adhesion of U937 cells to hVCAM-1(1-3)-IgG)). Conditions: concentration leading to 50% inhibition of adhesion of human U937 cells (ATCC CRL 1593) to hVCAM-1(1-3)-IgG.
T1 construct: supplied in their natural form as surface molecules on human U937 cells; host or cells: U937 cells carry endogenous VLA-4; The partner hVCAM-1(1-3)-IgG was made in house in transfected COS cells (ATCC CRL1651) and used as culture supernatant
Type: cell-based
Description: The test method used for the activity of the compounds of the formula I on the interaction between VCAM-1 and VLA-4 is the assay described below which is specific for this interaction. The cellular binding components, i.e., the VLA-4 integrins, are supplied in their natural form as surface molecules on human U937 cells (ATCC CRL 1593). which belong to the leucocytes group. The specific binding components used are genetically engineered recombinant soluble fusion proteins, consisting of the extracytoplasmatic domain of human VCAM-1 and the constant region of a human immunoglobulin of the subclass IgG1.
Assay for the Measurement of the Adhesion of U937 Cells (ATCC CRL 1593) to hVCAM-1(1-3)-IgG
1. Preparation of Human VCAM-1 (1-3)-IgG and Human CD4-IgG
A genetic construct for the expression of the extracellular domain of human VCAM-1, associated with the genetic sequence of the heavy chain of human immunoglobulin IgG1 (hinge, CH2 and CH3 regions), from Dr. Brian Seed, Massachusetts General Hospital. Boston, USA was employed (cf. Damle and Aruffo, Proc. Natl. Acad. Sci. USA 1991, 88, 6403-6407). The soluble fusion protein hVCAM-1(1-3)-IgG contained the three amino-terminal extracellular immunoglobulin-like domains of human VCAM-1 (Damle and Aruffo, Proc. Natl. Acad. Sci. USA 1991, 88, 6403-6407). CD4-IgG (Zettimeissl et al., DNA and Cell Biology 1990, 9, 347) served as a fusion protein for negative controls. The recombinant proteins were expressed as soluble proteins after DEAE/dextran-mediated DNA transfection in COS cells (ATCC CRL1651) according to standard procedures (Ausubel et al., Current Protocols in Molecular Biology, John Wiley & Sons, Inc., 1994).
2. Assay for the Measurement of the Adhesion of U937 Cells to hVCAM-1 (1-3)-IgG
2.1 96-well microtiter test plates (Nunc Maxisorb) were incubated at room temperature for 1 hour with 100 μl/well of a goat-anti-human IgG antibody solution (10 μg/ml in 50 mM tris, pH 9.5). After removal of the antibody solution, washing was carried out once with PBS.
2.2 150 μl/well of a blocking buffer (1% BSA in PBS) were incubated on the plates at room temperature for 0.5 hour. After removal of the blocking buffer, washing was carried out once with PBS.
2.3 100 μl per well of a cell culture supernatant of transfected COS cells were incubated on the plates at room temperature for 1.5 hours. The COS cells were transfected with a plasmid which codes for the three N-terminal immunoglobulin-like domains of VCAM-1, coupled to the Fc part of human IgG1 (hVCAM-1 (1-3)-IgG). The content of hVCAM-1 (1-3)-IgG was about 0.5-1 μg/ml. After removal of the culture supernatant, washing was carried out once with PBS.
2.4 The plates were incubated at room temperature for 20 minutes with 100 μl/well of Fc receptor blocking buffer (1 mg/ml of γ-globulin, 100 mM NaCl, 100 μM MgCl2, 100 μM MnCl2, 100 μM CaCl2, 1 mg/ml of BSA in 50 mM HEPES, pH 7.5). After removal of the Fc receptor blocking buffer, washing was carried out once with PBS.
2.5 20 μl of binding buffer (100 mM NaCl, 100 μM MgCl2, 100 μM MnCl2, 100 μM CaCl2, 1 mg/ml of BSA in 50 mM HEPES, pH 7.5) were initially introduced, and the substances to be tested were added in 10 μl of binding buffer and incubated for 20 minutes. The controls used were antibodies against VCAM-1 (BBT, No. BBA6) and against VLA-4 (immunotech, No. 0764).
2.6 U937 cells were incubated in Fc receptor blocking buffer for 20 minutes and then added by pipette in a concentration of 1×10^6/ml and in an amount of 100 μl per well ([…]).
2.7 The plates were slowly immersed at an angle of 45° in stop buffer (100 mM NaCl, 100 μM MgCl2, 100 μM MnCl2, 100 μM CaCl2 in 25 mM tris, pH 7.5) and shaken off. The process was repeated.
2.8 50 μl/well of a dye solution (16.7 μg/ml of Hoechst Dye 33258, 4% formaldehyde, 0.5% triton X-100 in PBS) were then incubated on the plates for 15 minutes. […]

T1 sequence (P13612 34-1032): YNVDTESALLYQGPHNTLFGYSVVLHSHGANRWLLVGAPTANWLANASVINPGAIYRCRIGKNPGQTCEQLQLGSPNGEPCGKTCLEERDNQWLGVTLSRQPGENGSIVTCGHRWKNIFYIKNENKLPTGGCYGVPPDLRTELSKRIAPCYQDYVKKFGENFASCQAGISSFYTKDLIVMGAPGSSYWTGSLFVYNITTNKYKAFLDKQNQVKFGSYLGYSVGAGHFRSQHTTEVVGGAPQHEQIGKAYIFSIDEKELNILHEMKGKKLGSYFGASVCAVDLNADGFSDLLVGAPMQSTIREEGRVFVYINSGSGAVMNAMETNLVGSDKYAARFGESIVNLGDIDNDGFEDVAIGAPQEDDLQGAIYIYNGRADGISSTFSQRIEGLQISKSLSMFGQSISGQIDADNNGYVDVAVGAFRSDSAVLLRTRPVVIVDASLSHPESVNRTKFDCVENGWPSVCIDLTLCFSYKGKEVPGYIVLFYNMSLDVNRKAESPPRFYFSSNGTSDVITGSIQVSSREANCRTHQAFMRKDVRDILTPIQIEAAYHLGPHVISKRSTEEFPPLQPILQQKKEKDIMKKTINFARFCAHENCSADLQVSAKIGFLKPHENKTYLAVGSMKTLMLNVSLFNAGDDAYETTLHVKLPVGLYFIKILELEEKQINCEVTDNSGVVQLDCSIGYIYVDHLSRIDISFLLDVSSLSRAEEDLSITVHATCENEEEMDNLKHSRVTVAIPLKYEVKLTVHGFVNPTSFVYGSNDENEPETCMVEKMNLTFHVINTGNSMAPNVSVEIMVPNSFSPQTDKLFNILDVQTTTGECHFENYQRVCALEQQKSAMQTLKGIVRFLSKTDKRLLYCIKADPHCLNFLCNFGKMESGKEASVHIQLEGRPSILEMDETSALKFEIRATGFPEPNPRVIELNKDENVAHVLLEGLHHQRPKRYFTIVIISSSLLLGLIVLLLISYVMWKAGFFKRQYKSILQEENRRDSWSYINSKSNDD
T1 sequence (P05556 21-798): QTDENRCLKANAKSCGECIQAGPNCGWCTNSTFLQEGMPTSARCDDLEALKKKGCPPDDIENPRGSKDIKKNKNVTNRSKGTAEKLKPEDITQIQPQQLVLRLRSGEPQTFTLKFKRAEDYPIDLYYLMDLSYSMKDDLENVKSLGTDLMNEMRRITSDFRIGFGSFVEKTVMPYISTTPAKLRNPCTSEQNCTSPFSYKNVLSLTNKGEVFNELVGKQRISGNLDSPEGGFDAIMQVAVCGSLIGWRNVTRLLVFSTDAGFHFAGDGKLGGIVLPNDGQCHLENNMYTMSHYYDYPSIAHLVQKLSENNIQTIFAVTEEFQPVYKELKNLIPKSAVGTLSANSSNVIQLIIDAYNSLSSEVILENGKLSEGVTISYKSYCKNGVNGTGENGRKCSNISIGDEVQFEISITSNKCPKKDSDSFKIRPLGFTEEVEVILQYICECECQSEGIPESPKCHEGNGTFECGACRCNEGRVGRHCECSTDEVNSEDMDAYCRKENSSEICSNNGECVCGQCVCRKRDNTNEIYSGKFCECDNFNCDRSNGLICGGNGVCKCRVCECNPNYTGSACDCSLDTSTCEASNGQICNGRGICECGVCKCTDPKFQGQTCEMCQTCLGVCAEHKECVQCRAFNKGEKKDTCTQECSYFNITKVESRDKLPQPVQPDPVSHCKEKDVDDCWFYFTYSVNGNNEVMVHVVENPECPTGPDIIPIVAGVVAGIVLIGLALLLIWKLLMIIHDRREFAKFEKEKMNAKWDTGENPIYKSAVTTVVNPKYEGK

Row | Compound | IC50 [µM]
1 | Cc1ccccc1NC(=O)Nc1ccc(CN2C(=O)N([C@@H](CC(C)C)C(=O)NC(CC(=O)O)c3ccccc3)C(=O)C2(C)C)cc1 (mixture of isomers) [Example 196, (RS)-3-((S)-2-(4,4-Dimethyl-3-(4-(3-(2-methylphenyl)ureido)benzyl)-2,5-dioxoimidazolidin-1-yl)-2-(2-methylpropyl)acetylamino)-3-phenylpropionic Acid] | 0.025
2 | CCCCS(=O)(=O)NC(CNC(=O)C(CC(C)C)N1C(=O)N(Cc2ccc(NC(=O)Nc3ccccc3C)cc2)C(C)(c2ccccc2)C1=O)C(=O)O (racemic) [Example 195, (RS)-2-Butylsulfonylamino-3-((RS)-2-((RS)-4-methyl-4-phenyl-3-(4-(3-(2-methyl-phenyl)ureido)benzyl)-2,5-dioxoimidazolidin-1-yl)-2-(2-methylpropyl)acetylamino)propionic Acid] | 0.023
3 | Cc1ccccc1NC(=O)Nc1ccc(CN2C(=O)N(C(CC(C)C)C(=O)N[C@@H](CC(=O)O)C(=O)N[C@H](C(=O)OC(C)(C)C)c3ccccc3)C(=O)C2(C)c2ccccc2)cc1 (mixture of isomers) [Example 219] | 0.175
4 | CC(C)C[C@@H](C(=O)N[C@H](C)CC(=O)O)N1C(=O)N(Cc2ccc(NC(=O)Nc3ccccc3)cc2)C(C)(C)C1=O [Example 6, (R)-3-((S)-2-(4,4-Dimethyl-3-(4-(3-phenylureido)benzyl)2,5-dioxoimidazolidin-1-yl)-2-(2-methylpropyl)acetylamino)-3-methylpropionic Acid] | 0.03
5 | Cc1ccccc1NC(=O)Nc1ccc(CN2C(=O)N([C@@H](CC(C)C)C(=O)N[C@@H](CC(=O)O)c3ccc4c(c3)OCO4)C(=O)C2(C)C)cc1 [Example 7, (S)-3-((S)-2-(4,4-Dimethyl-3-(4-(3-(2-methylphenyl)ureido)benzyl)-2,5-dioxoimidazolidin-1-yl)-(2-methylpropyl)acetylamino)-3-(3,4-methylenedioxyphenyl)propionic Acid] | 0.0025
6 | Cc1ccccc1NC(=O)Nc1ccc(CN2C(=O)N([C@@H](CC(C)C)C(=O)N[C@H](C)CC(=O)O)C(=O)C2(C)C)cc1 [Example 8, (R)-3-((S)-2-(4,4-Dimethyl-3-(4-(3-(2-methylphenyl)ureido)benzyl)-2,5-dioxoimidazolidin-1-yl)-2-(2-methylpropyl)acetylamino)-3-methylpropionic Acid] | 0.0038
7 | Cc1ccccc1NC(=O)Nc1ccc(CN2C(=O)N(CC(=O)N[C@@H](CC(=O)O)c3ccccc3)C(=O)C2(C)C)cc1 [Example 11, (S)-3-(2-(4,4-Dimethyl-3-(4-(3-(2-methylphenyl)ureido)benzyl)2,5-dioxoimidazolidin-1-yl)acetylamino)-3-phenylpropionic Acid] | 0.01
8 | Cc1ccccc1NC(=O)Nc1ccc(CN2C(=O)N([C@@H](CC(C)C)C(=O)NCCC(=O)O)C(=O)C2(C)C)cc1 [Example 16, 3-((S)-2-(4,4-Dimethyl-3-(4-(3-(2-methylphenyl)ureido)benzyl)-2,5-dioxoimidazolidin-1-yl)-2-(2-methylpropyl)acetylamino)propionic Acid] | 0.055
9 | Cc1ccccc1NC(=O)Nc1ccc(CN2C(=O)N([C@@H](CC(C)C)C(=O)N[C@@H](CC(=O)O)c3ccccc3)C(=O)C2(C)C)cc1 [Example 17, (S)-3-((S)-2-(4,4-Dimethyl-3-(4-(3-(2-methylphenyl)ureido)benzyl)-2,5-dioxoimidazolidin-1-yl)-2-(2-methylpropyl)acetylamino)-3-phenylpropionic Acid] | 0.0015
10 | CC(C)C[C@@H](C(=O)N[C@@H](CC(=O)O)c1ccccc1)N1C(=O)N(Cc2ccc(NC(=O)Nc3ccccc3)cc2)C(C)(C)C1=O [Example 19] | 0.003
11 | Cc1ccccc1NC(=O)Nc1ccc(CN2CC(=O)N(CC(=O)N[C@@H](CC(=O)O)C(=O)NC3C4CC5CC(C4)CC3C5)C2=O)cc1 (some centres unmarked) [Example 21] | 0.52

The remaining compounds from weak to strong by IC50, led by results:

Row | IC50 [µM] | Compound
12 | 0.6 | Cc1ccccc1NC(=O)Nc1ccc(CN2C(=O)N([C@@H](CC(C)C)C(=O)NCC(=O)O)C(=O)C2(C)C)cc1 [Example 10, 2-((S)-2-(4,4-Dimethyl-3-(4-(3-(2-methylphenyl)ureido)benzyl)-2,5-dioxoimidazolidin-1-yl)-2-(2-methylpropyl)acetylamino)acetic Acid]
13 | 0.16 | Cc1ccccc1NC(=O)Nc1ccc(CN2CC(=O)N(CC(=O)N(C)[C@@H](CC(=O)O)C(=O)NC3C4CC5CC(C4)CC3C5)C2=O)cc1 (some centres unmarked) [Example 20]
14 | 0.05 | COc1ccc([C@H](CC(=O)O)NC(=O)C(CC(C)C)N2C(=O)N(Cc3ccc(NC(=O)Nc4ccccc4C)cc3)C(C)(c3ccccc3)C2=O)c(OC)c1 (mixture of isomers) [Example 189, (S)-3-((RS)-2-((RS)-4-Methyl-4-phenyl-3-(4-(3-(2-methylphenyl)ureido)benzyl)-2,5-dioxoimidazolidin-1-yl)-2-(2-methylpropyl)acetylamino)-3-(2,4-dimethoxyphenyl)propionic Acid]
15 | 0.03 | Cc1ccccc1NC(=O)Nc1ccc(CN2C(=O)N(CC(=O)NCCC(=O)O)C(=O)C2(C)C)cc1 [Example 15, 3-(2-(4,4-Dimethyl-3-(4-(3-(2-methylphenyl)ureido)benzyl)-2,5-dioxoimidazolidin-1-yl)acetylamino)propionic Acid]
16 | 0.02 | Cc1ccccc1NC(=O)Nc1ccc(CN2C(=O)N(CC(=O)N[C@H](C)CC(=O)O)C(=O)C2(C)C)cc1 [Example 9, (R)-3-(2-(4,4-Dimethyl-3-(4-(3-(2-methylphenyl)ureido)benzyl)-2,5-dioxoimidazolidin-1-yl)acetylamino)-3-methylpropionic Acid]
17 | 0.016 | CN(C(=O)CN1C(=O)N(Cc2ccc(NC(=O)Nc3ccccc3)cc2)C(C)(C)C1=O)[C@@H](CC(=O)O)C(=O)NC1C2CC3CC(C2)CC1C3 (some centres unmarked) [Example 23]
18 | 0.005 | CC(C)C[C@@H](C(=O)N[C@@H](CC(=O)O)c1ccc2c(c1)OCO2)N1C(=O)N(Cc2ccc(NC(=O)Nc3ccccc3)cc2)C(C)(C)C1=O [Example 5, (S)-3-((S)-2-(4,4-Dimethyl-3-(4-(3-phenylureido)benzyl)-2,5-dioxoimidazolidin-1-yl)-2-(2-methylpropyl)acetylamino)-3-(3,4-methylenedioxyphenyl)propionic Acid]
19 | 0.004 | CC(C)CC(C(=O)N[C@@H](CC(=O)O)C(=O)N[C@H](C(=O)O)c1ccccc1)N1C(=O)N(Cc2ccc(NC(=O)Nc3ccccc3)cc2)C(C)(c2ccccc2)C1=O (mixture of isomers) [Example 1, ((RS)-2-((RS)-4-Phenyl-3-(4-(3-phenylureido)benzyl)-4-methyl-2,5-dioxoimidazolidin-1-yl)-2-(2-methylpropyl)acetyl)-L-aspartyl-L-phenylglycine]
20 | 0.004 | Cc1ccccc1NC(=O)Nc1ccc(CN2C(=O)N(CC(=O)N(C)[C@@H](CC(=O)O)C(=O)NC3C4CC5CC(C4)CC3C5)C(=O)C2(C)C)cc1 (stereo partly drawn) [Example 22, (2-(4,4-Dimethyl-3-(4-(3-(2-methylphenyl)ureido)benzyl)-2,5-dioxoimidazolidin-1-yl)-acetyl)-N-methyl-L-(2-adamantyl)aspartamide]
